Laboratory results taken from PubChem BioAssay AID330 (DTP/NCI, 2004).
Values joined by “and” are separate entries in the source; they are usually repeats but may differ in a detail not shown here. Identical values can stand only once. Toxic doses and inconclusive results are not listed. Numbered stars: 1 amine (or outer) side, 2 acyl side, 3 side chain; on linkers, the order of the positions; unused ones are H or OH. Bridge positions count the residues as written; N and C are the ends. Square brackets hold non-standard residues; d marks the D form. Peptide text beside a SMILES is read from it. I, II: the chains in the order shown. Actinocin(1to9) = Cc1c2oc3c(C)ccc(C(=O)[*:2])c3nc-2c(C(=O)[*:1])c(N)c1=O; Hyp = O=C(O)[CH]1C[CH](O)CN1; NMeV = CN[CH](C(=O)O)C(C)C; Sar = CNCC(=O)O

Test system: P388 leukemia ip, CD2F1 mice, survival T/C
Experiment: NCI In Vivo Anticancer Drug Screen. Data for tumor model P388 Leukemia (intraperitoneal) in CD2F1 (CDF1) mice
Details: endpoint: median survival time, higher = longer survival
Method in brief: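 Mice carrying the transplanted tumor received test compound or vehicle. Survival was recorded in each group, and the value is the treated-group measurement divided by that of the vehicle-treated control group.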

[1] = dose: 50.0 mg/kg/injection, schedule: Q01DX009 (ip), vehicle: saline
[2] = dose: 100.0 mg/kg/injection, schedule: Q01DX009 (ip), vehicle: saline
[3] = dose: 200.0 mg/kg/injection, schedule: Q01DX009 (ip), vehicle: saline
[4] = dose: 60.0 mg/kg/injection, schedule: Q01DX005 (ip), vehicle: saline with Tween-80
[5] = dose: 120.0 mg/kg/injection, schedule: Q01DX005 (ip), vehicle: saline with Tween-80
[6] = dose: 50.0 mg/kg/injection, schedule: Q01DX005 (ip), vehicle: saline with Tween-80
[7] = dose: 100.0 mg/kg/injection, schedule: Q01DX005 (ip), vehicle: saline with Tween-80
[8] = dose: 200.0 mg/kg/injection, schedule: Q01DX005 (ip), vehicle: saline with Tween-80
[9] = dose: 60.0 mg/kg/injection, schedule: Q01DX005 (ip), vehicle: saline
[10] = dose: 120.0 mg/kg/injection, schedule: Q01DX005 (ip), vehicle: saline
[11] = dose: 240.0 mg/kg/injection, schedule: Q01DX005 (ip), vehicle: saline
[12] = dose: 50.0 mg/kg/injection, schedule: Q01DX009 (ip), vehicle: saline with Tween-80
[13] = dose: 100.0 mg/kg/injection, schedule: Q01DX009 (ip), vehicle: saline with Tween-80
[14] = dose: 200.0 mg/kg/injection, schedule: Q01DX009 (ip), vehicle: saline with Tween-80
[15] = dose: 50.0 mg/kg/injection, schedule: Q01DX009 (ip), vehicle: Klucel (hydroxypropylcellulose) (HPC)
[16] = dose: 100.0 mg/kg/injection, schedule: Q01DX009 (ip), vehicle: Klucel (hydroxypropylcellulose) (HPC)
[17] = dose: 60.0 mg/kg/injection, schedule: Q01DX005 (ip), vehicle: Klucel (hydroxypropylcellulose) (HPC)
[18] = dose: 120.0 mg/kg/injection, schedule: Q01DX005 (ip), vehicle: Klucel (hydroxypropylcellulose) (HPC)
[19] = dose: 240.0 mg/kg/injection, schedule: Q01DX005 (ip), vehicle: Klucel (hydroxypropylcellulose) (HPC)

SMILES: O=c1cc[nH]c2ccccc12
- T/C [1]: 96 % of control
- T/C [2]: 92 % of control
- T/C [3]: 97 % of control

SMILES: COC(=O)NC1CC(C2CO2)OC1=O (centres undefined)
- T/C (dose: 50.0 mg/kg/injection, schedule: Q01DX005 (ip), vehicle: saline): 101 % of control
- T/C (dose: 100.0 mg/kg/injection, schedule: Q01DX005 (ip), vehicle: saline): 99 % of control
- T/C (dose: 200.0 mg/kg/injection, schedule: Q01DX005 (ip), vehicle: saline): 109 % of control

SMILES: c1ccc(CC2CCc3ccccc3/C2=N/OCC2CO2)cc1 (centres undefined)
- T/C (dose: 30.0 mg/kg/injection, schedule: Q01DX005 (ip), vehicle: saline with Tween-80): 101 % of control
- T/C [4]: 97 % of control
- T/C [5]: 98 % of control

SMILES: CCCOc1cc2c(cc1C/C=C/c1ccccc1)OCO2
- T/C [6]: 94 % of control
- T/C [7]: 100 % of control
- T/C [8]: 102 % of control

SMILES: COc1ccc2c(c1)[C@@]13CCCCC1[C@@H](C2)N(CC1CC1)CC3 (some centres undefined)
- T/C (dose: 100.0 mg/kg/injection, schedule: Q01DX001 (ip), vehicle: Klucel (hydroxypropylcellulose) (HPC)): 100 % of control
- T/C (dose: 200.0 mg/kg/injection, schedule: Q01DX001 (ip), vehicle: Klucel (hydroxypropylcellulose) (HPC)): 100 % of control

SMILES: CC(=O)NC(CCl)(OC(C)=O)C(=O)OCc1ccc([N+](=O)[O-])cc1 (centres undefined)
- T/C (dose: 12.5 mg/kg/injection, schedule: Q01DX001 (ip), vehicle: Klucel (hydroxypropylcellulose) (HPC)): 102 % of control
- T/C (dose: 25.0 mg/kg/injection, schedule: Q01DX001 (ip), vehicle: Klucel (hydroxypropylcellulose) (HPC)): 108 % of control
- T/C (dose: 50.0 mg/kg/injection, schedule: Q01DX001 (ip), vehicle: Klucel (hydroxypropylcellulose) (HPC)): 100 % of control
- T/C (dose: 100.0 mg/kg/injection, schedule: Q04DX003 (ip), vehicle: saline with Tween-80): 106 % of control
- T/C (dose: 200.0 mg/kg/injection, schedule: Q04DX003 (ip), vehicle: saline with Tween-80): 120 % of control
- T/C (dose: 400.0 mg/kg/injection, schedule: Q04DX003 (ip), vehicle: saline with Tween-80): 100 % of control

SMILES: COc1cc(C2CC(C)(OC)Oc3cc4c(cc32)OCO4)cc(OC)c1OC (centres undefined)
- T/C [4]: 106 % of control and 90 % of control and 95 % of control
- T/C [5]: 109 % of control and 95 % of control and 97 % of control

SMILES: Cc1nc2c([N+](=O)[O-])cc(C(=O)O)cc2[nH]1
- T/C [9]: 100 % of control
- T/C [10]: 97 % of control
- T/C [11]: 87 % of control

SMILES: C[N+](C)(CC(=O)Nc1cccc(C(F)(F)F)c1)CC(=O)Nc1cccc(C(F)(F)F)c1
- T/C (dose: 3.13 mg/kg/injection, schedule: Q01DX009 (ip), vehicle: saline sonified): 100 % of control
- T/C (dose: 6.25 mg/kg/injection, schedule: Q01DX009 (ip), vehicle: saline sonified): 104 % of control
- T/C (dose: 12.5 mg/kg/injection, schedule: Q01DX009 (ip), vehicle: saline sonified): 109 % of control

SMILES: CC(C)=CCC[C@](C)(O[C@@H]1O[C@H](CO)[C@@H](O)[C@H](O)[C@H]1O)[C@H]1CC[C@]2(C)[C@@H]1[C@H](O)C[C@@H]1[C@@]3(C)CC[C@H](O)C(C)(C)[C@@H]3[C@@H](O[C@@H]3O[C@H](CO)[C@@H](O)[C@H](O)[C@H]3O)C[C@]12C
- T/C [1]: 105 % of control
- T/C [2]: 106 % of control
- T/C [3]: 106 % of control

SMILES: Cc1nc(N)[nH]c(=O)c1CCCNC(=O)c1cccc([N+](=O)[O-])c1
- T/C [4]: 94 % of control
- T/C [5]: 100 % of control
- T/C (dose: 240.0 mg/kg/injection, schedule: Q01DX005 (ip), vehicle: saline with Tween-80): 103 % of control

SMILES: CCOC(=O)CCC(NC(=O)c1ccc(CBr)cc1)C(=O)OCC (centres undefined)
- T/C (dose: 12.5 mg/kg/injection, schedule: Q01DX009 (ip), vehicle: distilled water + Tween-80): 102 % of control
- T/C (dose: 25.0 mg/kg/injection, schedule: Q01DX009 (ip), vehicle: distilled water + Tween-80): 111 % of control
- T/C (dose: 50.0 mg/kg/injection, schedule: Q01DX009 (ip), vehicle: distilled water + Tween-80): 107 % of control
- T/C (dose: 100.0 mg/kg/injection, schedule: Q01DX009 (ip), vehicle: distilled water + Tween-80): 100 % of control

SMILES: Cc1ccc(C(O)(C(F)(F)F)C(O)(c2ccc(C)cc2)C(F)(F)F)cc1 (centres undefined)
- T/C [12]: 107 % of control and 100 % of control
- T/C [13]: 107 % of control and 104 % of control
- T/C [14]: 101 % of control and 105 % of control

SMILES: Cc1ccc2nc(NC(=S)NCCCCCCNC(=S)Nc3ccc4cc(C)ccc4n3)ccc2c1
- T/C [15]: 93 % of control
- T/C [16]: 93 % of control

SMILES: Cc1c2oc3c(C)ccc(C(=O)NC4C(=O)NC(C(C)C)C(=O)N5CCCC5C(=O)N(C)CC(=O)N(C)C(C(C)C)C(=O)OC4C)c3nc-2c(C(=O)NC2C(=O)NC(C(C)C)C(=O)N3CC(O)CC3C(=O)N(C)CC(=O)N(C)C(C(C)C)C(=O)OC2C)c(N)c1=O (centres undefined) (I: TV[Hyp][Sar][NMeV] / II: TVP[Sar][NMeV]; ester I:1-I:C, II:1-II:C; linker I:N-II:N via Actinocin(1to9); configuration not given here)
- T/C (dose: 0.1 mg/kg/injection, schedule: Q01DX009 (ip), vehicle: Klucel (hydroxypropylcellulose) (HPC)): 221 % of control
- T/C (dose: 0.2 mg/kg/injection, schedule: Q01DX009 (ip), vehicle: Klucel (hydroxypropylcellulose) (HPC)): 108 % of control
- T/C (dose: 0.2 mg/kg/injection, schedule: Q01DX009 (ip), vehicle: water): 151 % of control
- T/C (dose: 0.4 mg/kg/injection, schedule: Q01DX009 (ip), vehicle: water): 186 % of control

SMILES: CC12CCC(=O)OC1(CO)C([Se]c1ccccc1)CC2CC(N)=O (centres undefined)
- T/C [6]: 93 % of control
- T/C [7]: 91 % of control
- T/C [8]: 91 % of control

SMILES: Cc1cc(=O)n2c(nc3ccccc32)o1
- T/C [17]: 104 % of control
- T/C [18]: 104 % of control
- T/C [19]: 99 % of control

SMILES: O=c1ccn(C2OC(CO)C(O)C2Cl)c(=O)[nH]1 (centres undefined)
- T/C (dose: 6.25 mg/kg/injection, schedule: Q01DX009 (ip), vehicle: Klucel (hydroxypropylcellulose) (HPC)): 101 % of control
- T/C (dose: 12.5 mg/kg/injection, schedule: Q01DX009 (ip), vehicle: Klucel (hydroxypropylcellulose) (HPC)): 104 % of control
- T/C (dose: 25.0 mg/kg/injection, schedule: Q01DX009 (ip), vehicle: Klucel (hydroxypropylcellulose) (HPC)): 109 % of control
- T/C [15]: 105 % of control
- T/C [16]: 101 % of control
- T/C (dose: 200.0 mg/kg/injection, schedule: Q01DX009 (ip), vehicle: Klucel (hydroxypropylcellulose) (HPC)): 104 % of control

SMILES: Cc1ccn(C)n1
- T/C [9]: 96 % of control
- T/C [10]: 93 % of control
- T/C [11]: 100 % of control

SMILES: CCc1ccnc(N=C2N=C(Nc3cc(CC)ccn3)c3ccccc32)c1
- T/C [12]: 92 % of control
- T/C [13]: 97 % of control
- T/C [14]: 97 % of control

SMILES: OCC1OC(Sc2ncc[nH]2)C(O)C(O)C1O (centres undefined)
- T/C [9]: 94 % of control and 97 % of control
- T/C [10]: 95 % of control and 96 % of control
- T/C [11]: 97 % of control and 90 % of control

SMILES: CCCc1c(C(=O)OCCCN(CC)CC)c(C(=O)OCCCN(CC)CC)c(CCC)n1-c1ccccc1
- T/C (dose: 25.0 mg/kg/injection, schedule: Q01DX005 (ip), vehicle: saline): 105 % of control

SMILES: O=C1c2c(O)ccc(N3CCOCC3)c2C(=O)c2c(N3CCOCC3)ccc(O)c21
- T/C [17]: 103 % of control
- T/C [18]: 98 % of control
- T/C [19]: 100 % of control

SMILES: Cc1cccc(Nc2c(C(=O)O)cnc3cc4c(cc23)OCO4)c1C
- T/C (dose: 30.0 mg/kg/injection, schedule: Q01DX005 (ip), vehicle: Klucel (hydroxypropylcellulose) (HPC)): 94 % of control
- T/C [17]: 96 % of control
- T/C [18]: 99 % of control and 103 % of control
- T/C [19]: 111 % of control

SMILES: Nc1[nH]c(=S)[nH]c(=O)c1N=O
- T/C (dose: 6.25 mg/kg/injection, schedule: Q01DX009 (ip), vehicle: saline): 100 % of control and 113 % of control
- T/C (dose: 12.5 mg/kg/injection, schedule: Q01DX009 (ip), vehicle: saline): 98 % of control
- T/C (dose: 25.0 mg/kg/injection, schedule: Q01DX009 (ip), vehicle: saline): 100 % of control and 117 % of control
